Where no end group is shown, it is not given here.

What all share (type): cell-based
Experiment [1] has as its system TrioGEFD2-mediated RhoA activation. Put plainly: RhoA activity assay (Rhotekin RBD pull-down) in COS cells. To be noted: COS cells co-transfected, 48 hours. The text has this: FIG. 5B represents the inhibitory effect of TRIPα on TrioGEFD2-mediated RhoA activation in intact cells using the RhoA activity assay, COS cells were transfected with GFP-TRIPα (left line), TrioGEFD2 (middle line) or both (right line). Cell lysates were subjected to GST-pulldown using the recombinant RBD (RhoA binding domain) fragment of the RhoA-specific effector Rhotekin. The presence of the GTP-bound form of RhoA and of the total RhoA protein was detected using a monoclonal anti-RhoA antibody and is represented in the upper two panels. GFP-TRIPα and TrioGEFD2 expression in the cell lysates is shown in the lower two panels.
Quantification of the RhoA activity assay is shown in the right part of the figure. The y-axis represents the ratio between active RhoA and total RhoA, in arbitrary units.
The Inventors then wanted to assess the inhibition by TRIPα of TrioGEFD2-mediated activation of endogenous RhoA in intact cells. To do so, the RhoA activity assay was used to detect the active GTP-bound form of RhoA (Ren et al., 1999). Briefly, COS cells were transfected as described in FIG. 5A with TrioGEFD2 in absence or in the presence of GFP-TRIAPα. 48 hours after transfection, cell lysates were subjected to GST-pull down using 20 μg of the recombinant RBD (RhoA binding domain) fragment of the RhoA-specific effector Rhotekin, that binds only to the activated GTP-bound form of RhoA.

Experiment [2] concerns ectopically expressed TrioGEFD2 in PC12 cells. Put plainly: NGF-induced neurite outgrowth in PC12 cells expressing TrioGEFD2. The following applies: PC12 co-transfected with TrioGEFD2, NGF 50 ng/ml 16 hours. Here is the method:
FIG. 5C represents the inhibition by TRIPα of the TrioGEFD2 effect in neuronal morphology. Immunofluorescence images of PC12 cells co-transfected with HA-TrioGEFD2 and either GFP-TRIPα (panels d, e, f) or GFP alone panels a, b, c) are shown. After 48 hours of expression, cells were treated for 16 hours with NGF (nerve growth factor) (50 ng/ml) and fixed. Expression of GFP and GFP-TRIPα was directly visualised (a, d) whereas overexpressed TrioGEFD2 was detected using the 12CA5 anti-HA antibody followed by AMCA-conjugated anti-mouse IgG (b, e). Filamentous actin was stained with Rhodamine-conjugated Phalloidin (c, f). Scale bar: 20 μm.
(§1) Cells were transfected with HA-tagged TrioGEFD2 (left side of the figure), myc-tagged KalGEFD2 (middle of the figure) or RhoAV14 (a constitutively active mutant of RhoA) (right side of the figure), and with either GFP-TRIPα (white bars), GFP-TRIPβ (hatched bars) or GFP alone (black bars). Cells were processed as described in FIG. 5C and the number of co-transfected cells with neurites was counted.
(§2) Numerous reports have established Rho-GTPases as key regulators of neuronal morphology (Luo, 2000). In neuronal cell lines, activation of RhoG, Rac and Cdc42 induces neurite outgrowth, while RhoA stimulation antagonises this effect by promoting neurite retraction (Katoh et al., 2000; Kozma et al., 1997; Yamaguchi et al., 2001). The PC12 cell line is a useful cellular model for studying Nerve Growth Factor (NGF)-induced neuronal differentiation. PC12-E2 cells were plated on collagen-coated 12 mm coverslips as described previously (Estrach et al., 2002) and transfected with the Lipofectamine Plus reagent (Life Technologies) according to the manufacturer's instructions. After transfection and differentiation with NGF (Promega, 50 ng/ml in DMEM medium supplemented with 0.5% horse serum (HS)) for 16 hours, PC12 cells were fixed and permeabilised as described (Estrach et al., 2002). […] Images were recorded using a Hamamatsu CCD camera. All transfections were repeated at least three times, and an average of 200 cells was counted each time. […]

Another experiment has as its system KalGEFD2 in PC12 cells. The experiment is described as follows: NGF-induced neurite outgrowth in PC12 cells expressing KalGEFD2. The following applies: PC12 co-transfected with KalGEFD2, NGF 50 ng/ml.
From the text: as §1
as §2, with “instructions.” for “instructions. After transfection and differentiation with NGF (Promega, 50 ng/ml in DMEM medium supplemented with 0.5% horse serum (HS)) for 16 hours, PC12 cells were fixed and permeabilised as described (Estrach et al., 2002).”

In experiment [3] the test system is NGF-differentiated PC12 cells. The experiment is described as follows: Serum-induced neurite retraction. To be noted: 15 min after serum (10% HS and 5% FCS); NGF 50 ng/ml 16 hours. As to the method: FIG. 6A represents histograms quantifying the effects of GFP-TRIPα or GFP on serum induced neurite retraction in NGF-differentiated PC12 cells. The X-axis represents the time after serum addition in minutes and the Y-axis represents the percentage of transfected cells with neurites.
Cells were transfected with GFP-TRIPα (white bars) or GFP (black bars) and differentiated with NGF (50 ng/ml). Serum was added and neurite retraction was followed for 15 minutes. The number of transfected cells with neurites was counted from at least 200 cells in 3 independent experiments.
(§3) Since Trio is an activator of RhoA and is expressed in PC12 cells (Estrach et al., 2002), it was analysed whether TRIPα could interfere with serum-induced neurite retraction in NGF-differentiated PC12 cells. […] After NGF treatment, cells were subjected to serum addition (DMEM medium supplemented with 10% HS and 5% fetal calf serum (FCS)) from 0 to 15 min (FIG. 6A). Cells were then fixed and permeabilised (Estrach et al., 2002) and observed as described in FIG. 5. Cells with neurites are defined as cells with neurites of at least twice the length of the cell body.

Another experiment relates to PC12 cells. Put plainly: NGF-induced neurite outgrowth. The following applies: NGF 50 ng/ml, 1 to 24 hours. Here is the method:
PC12 were transfected with GFP-TRIPα (lack squares) or GFP (white diamonds) and subjected to a time-course exposure to NGF (50 ng/ml). At each time-point cells were fixed and the number of transfected cells with neurites was counted from at least 200 cells.
as §3
However, since the NGF treatment was performed for 16 hours, it was still possible that the effect of TRIPα on the NGF-differentiation signal was masked by the long NGF exposure. To test this hypothesis, PC12 cells expressing GFP-TRIPα or […] were subjected to a time-course exposure to NGF (50 ng/ml) for 1 to 24 hours.

Consider “GFP-TRIPα: variable region of TRIAPα (TRIPα) fused to GFP, expressed from pEGFP-C3 plasmid (AREGADGAICGYNLATLVMLGPSERVFCPLCEPCSSDIYELM; cysteine pairing not given here; also: fused to GFP (carrier not in chain))”, for which the “Inhibition of TrioGEFD2-mediated RhoA activation in intact cells” value in experiment [1] is “significantly inhibited”. In addition, in experiment [2], the “Reversion of TrioGEFD2 inhibition of NGF-induced neurite outgrowth” value was “reverted the Trio-dependent inhibition” and the “percentage of co-transfected cells with neurites” value is reported as 45%. Besides, the “Effect on KalGEFD2 inhibition of NGF-induced neurite extension” value in the experiment on KalGEFD2 in PC12 cells is listed as “similarly inhibited by KalGEFD2 either with or without”. Besides, the “percentage of transfected cells with neurites after serum addition” value in experiment [3] was 32%. Besides, the “Effect on NGF-induced neurite outgrowth, time course” value in the experiment with PC12 cells is “responded to NGF treatment more quickly than the control cells”.

The values above are taken from patent US8088892B2, “Inhibitors of proteins from the Rho-GEF family” (Centre National de la Recherche Scientifique (C.N.R.S.), priority 2002, dated 2012).
